Data reported in patent US7851637B2, “Compounds and methods for inhibiting the interaction of BCL proteins with binding partners” (Infinity Pharmaceuticals, Inc., priority 2004, dated 2010).

What was measured:
Bcl-xL = Bcl-xL (Homo sapiens, UniProt Q07817); test: Bcl-xL binding affinity analysis (fluorescence polarization binding assay); design: scale not given here
How it was run: (§1)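 In vitro measurement of compound binding to each protein by fluorescence polarization, described as sensitive and quantitative.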

Bcl-2 = Bcl-2 (Homo sapiens, UniProt P10415); test: Bcl-2 binding affinity analysis (fluorescence polarization binding assay)
Chain of Bcl-2 (P10415 whole entry): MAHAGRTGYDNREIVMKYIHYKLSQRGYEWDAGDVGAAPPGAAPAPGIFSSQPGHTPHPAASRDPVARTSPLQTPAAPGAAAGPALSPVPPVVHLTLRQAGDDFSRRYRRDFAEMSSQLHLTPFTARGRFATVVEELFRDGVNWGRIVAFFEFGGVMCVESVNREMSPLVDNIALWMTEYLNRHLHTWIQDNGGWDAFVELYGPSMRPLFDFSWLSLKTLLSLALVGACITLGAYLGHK
How it was run: as §1

Chain of Bcl-xL (Q07817 whole entry): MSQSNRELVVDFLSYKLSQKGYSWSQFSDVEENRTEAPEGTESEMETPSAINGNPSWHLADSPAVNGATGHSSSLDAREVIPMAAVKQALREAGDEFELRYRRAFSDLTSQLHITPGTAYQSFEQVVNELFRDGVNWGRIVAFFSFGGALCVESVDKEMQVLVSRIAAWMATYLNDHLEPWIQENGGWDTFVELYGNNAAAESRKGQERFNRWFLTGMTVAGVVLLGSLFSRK

Row | Compound | Bcl-XL binding affinity Ki (Bcl-xL) | Ki (Bcl-2) [nM]
1 | CC(O)C1C(CO)ON(Cc2cccc(CNC(Cc3ccccc3)CN(C)C)c2)C1C(=O)NC1CC2CC(C1C)C2(C)C (stereo not drawn) [Compound 467] | ♯ | < 800
2 | CC(O)C1C(CO)ON(Cc2cccc(CN(CCN(C)C)Cc3ccccc3-c3ccc(F)cc3)c2)C1C(=O)NC1CC2CC(C1C)C2(C)C (stereo not drawn) [Compound 341] | ♯ | < 800
3 | C[C@@H](O)[C@H]1[C@@H](CO)ON(Cc2cccc(C#CC(O)c3ccccc3Cl)c2)[C@H]1C(=O)NCCCN(C)c1ccccc1 (stereo partly drawn) [Compound 33] | ♯♯ | 800 to 6000
4 | CC(C)CC(CN(C)C)N(Cc1cccc(CN2OC(CO)C(C(C)O)C2C(=O)NC2CC3CC(C2C)C3(C)C)c1)Cc1ccccc1N1CCOCC1 (stereo not drawn) [Compound 331] | ♯ | < 800
5 | C[C@@H]1[C@@H](NC(=O)[C@@H]2[C@H]([C@H](C)O)[C@H](CO)ON2Cc2cccc(-c3ccc(C(=O)N(C)C)c([N+](=O)[O-])c3)c2)C[C@H]2C[C@@H]1C2(C)C [Compound 136] | ♯ | < 800
6 | C[C@@H]1[C@@H](NC(=O)[C@@H]2[C@H]([C@H](C)O)[C@H](CO)ON2Cc2cccc(-c3ccc(S(=O)(=O)N(C)C)cc3)c2)C[C@H]2C[C@@H]1C2(C)C [Compound 130] | ♯♯ | < 800
7 | C[C@H](O)[C@@H]1[C@H](CO)ON(Cc2ccc(C#CCN(C)Cc3ccccc3)cc2)[C@@H]1C(=O)NCCC1=CCCCC1 [Compound 38] | ♯♯ | > 50000
8 | CC(C)C[C@H](CN(C)C)NC(=O)c1cccc(-c2cccc(CN3O[C@@H](CO)[C@@H]([C@H](C)O)[C@H]3C(=O)N[C@H]3C[C@H]4C[C@@H]([C@@H]3C)C4(C)C)c2)c1 [Compound 99] | ♯♯ | 800 to 6000
9 | C[C@H](O)[C@@H]1[C@H](CO)ON(Cc2cccc(C#C[C@]3(O)CC[C@H]4[C@@H]5CCc6cc(O)ccc6[C@H]5CC[C@@]43C)c2)[C@@H]1C(=O)NCCCN(C)c1ccccc1 [Compound 34] | ♯ | > 50000
10 | C[C@@H]1[C@@H](NC(=O)[C@@H]2[C@H]([C@H](C)O)[C@H](CO)ON2Cc2cccc(N(CCN(C)C)Cc3ccccc3)c2)C[C@H]2C[C@@H]1C2(C)C [Compound 235] | ♯♯ | < 800
11 | CCC(C)C(CN(C)C)N(Cc1cccc(CN2OC(CO)C(C(C)O)C2C(=O)NC2CC3CC(C2C)C3(C)C)c1)Cc1c(O)cccc1F (stereo not drawn) [Compound 440] | ♯ | < 800
12 | C[C@@H]1[C@@H](NC(=O)[C@@H]2C([C@H](C)O)[C@H](CO)ON2Cc2ccc(C#CC3(N)CCCCC3)cc2)C[C@H]2C[C@@H]1C2(C)C (stereo partly drawn) [Compound 30] | ♯♯ | 800 to 6000
13 | CCN(CC)C(=O)c1ccc(-c2cccc(CN3O[C@@H](CO)[C@@H]([C@H](C)O)[C@H]3C(=O)N[C@H]3C[C@H]4C[C@@H]([C@@H]3C)C4(C)C)c2)cc1 [Compound 108] | ♯ | < 800
14 | Cc1cc(-c2cccc(CN3O[C@@H](CO)[C@@H]([C@H](C)O)[C@H]3C(=O)N[C@H]3C[C@H]4C[C@@H]([C@@H]3C)C4(C)C)c2)ccc1C(=O)N(C)C [Compound 150] | ♯♯ | < 800
15 | C[C@@H]1[C@@H](NC(=O)[C@@H]2[C@H]([C@H](C)O)[C@H](CO)ON2Cc2cccc(CN(CCCc3ccccc3)CCN(C)C)c2)C[C@H]2C[C@@H]1C2(C)C [Compound 205] | ♯ | < 800
16 | CC(O)C1C(CO)ON(Cc2cccc(CN(CCN(C)C)CC3CC=CCC3)c2)C1C(=O)NC1CC2CC(C1C)C2(C)C (stereo not drawn) [Compound 350] | ♯ | < 800
17 | CCN1CCC[C@@H]1CNC(=O)c1cccc(-c2cccc(CN3O[C@@H](CO)[C@@H]([C@H](C)O)[C@H]3C(=O)N[C@H]3C[C@H]4C[C@@H]([C@@H]3C)C4(C)C)c2)c1 [Compound 106] | ♯ | < 800
18 | CCN(CC)CCNC(=O)c1cccc(-c2cccc(CN3O[C@@H](CO)[C@@H]([C@H](C)O)[C@H]3C(=O)N[C@H]3C[C@H]4C[C@@H]([C@@H]3C)C4(C)C)c2)c1 [Compound 112] | ♯ | < 800
19 | CC(C)/N=C(/NC(C)C)N1CCN(c2cccc(CN3O[C@@H](CO)[C@@H]([C@H](C)O)[C@H]3C(=O)NC3C[C@H]4C[C@@H]([C@@H]3C)C4(C)C)c2)CC1 (stereo partly drawn) [Compound 296] | ♯ | < 800
20 | CCN(CC)CCN(Cc1cccc(CN2OC(CO)C(C(C)O)C2C(=O)NC2CC3CC(C2C)C3(C)C)c1)CC1CCCCC1 (stereo not drawn) [Compound 419] | ♯ | < 800

More lines, now with the values ahead:

Row | Bcl-XL binding affinity Ki (Bcl-xL) | Ki (Bcl-2) [nM] | Compound
21 | ♯ | < 800 | CCN1CCC[C@H]1CNC(=O)c1cccc(-c2cccc(CN3O[C@@H](CO)[C@@H]([C@H](C)O)[C@H]3C(=O)N[C@H]3C[C@H]4C[C@@H]([C@@H]3C)C4(C)C)c2OC)c1 [Compound 156]
22 | ♯ | < 800 | CC(O)C1C(CO)ON(Cc2cccc(C(=O)NCc3ccccc3)c2)C1C(=O)NC1CC2CC(C1C)C2(C)C (stereo not drawn) [Compound 510]
23 | ♯♯ | < 800 | C[C@@H]1[C@@H](NC(=O)[C@@H]2[C@H]([C@H](C)O)[C@H](CO)ON2Cc2cccc(-c3cccc(C(=O)N4CC[C@H](N(C)C)C4)c3)c2)C[C@H]2C[C@@H]1C2(C)C [Compound 119]
24 | ♯ | < 800 | C[C@@H]1[C@@H](NC(=O)[C@@H]2C([C@H](C)O)[C@H](CO)ON2Cc2cccc(CN(CCN(C)C)CC3CC4C=CC3C4)c2)C[C@H]2C[C@@H]1C2(C)C (stereo partly drawn) [Compound 401]
25 | ♯♯ | < 800 | C[C@H](O)[C@@H]1[C@H](CO)ON(Cc2cccc(-c3cccc(NS(C)(=O)=O)c3)c2)[C@@H]1C(=O)NC1C[C@H]2C[C@@H]([C@@H]1C)C2(C)C (stereo partly drawn) [Compound 181]
26 | ♯ | < 800 | CCCC(CN(C)C)N(Cc1cccc(CN2OC(CO)C(C(C)O)C2C(=O)NC2CC3CC(C2C)C3(C)C)c1)Cc1ccccc1Cl (stereo not drawn) [Compound 438]
27 | ♯ | < 800 | C[C@H](O)[C@@H]1[C@H](CO)ON(Cc2cccc(-c3ccc(C(=O)N[C@H]4CCN(C)C4)cc3)c2)[C@@H]1C(=O)NC1C[C@H]2C[C@@H]([C@@H]1C)C2(C)C (stereo partly drawn) [Compound 231]
28 | ♯ | < 800 | C[C@@H]1[C@@H](NC(=O)[C@@H]2[C@H]([C@H](C)O)[C@H](CO)ON2Cc2cccc(-c3cccc(C(=O)NCCN4CCCC4)c3)c2)C[C@H]2C[C@@H]1C2(C)C [Compound 215]
29 | ♯♯ | > 50000 | COC(=O)[C@@H](NC(=O)[C@@H]1[C@H]([C@H](C)O)[C@H](CO)ON1Cc1cccc(C#CC2(N)CCCCC2)c1)C(C)C [Compound 47]
30 | ♯ | < 800 | CC(O)C1C(CO)ON(Cc2cccc(CN(CCN(C)C)CC3CCCOC3)c2)C1C(=O)NC1CC2CC(C1C)C2(C)C (stereo not drawn) [Compound 382]
31 | ♯ | 800 to 6000 | C[C@H](O)[C@@H]1[C@H](CO)ON(Cc2cccc(C#CCNC(=O)c3ccccc3)c2)[C@@H]1C(=O)N[C@H]1C[C@H]2CC([C@@H]1C)C2(C)C [Compound 57]
32 | ♯ | < 800 | C[C@@H]1[C@@H](NC(=O)[C@@H]2[C@H]([C@H](C)O)[C@H](CO)ON2Cc2cccc(-c3cccc(C(N)=O)c3)c2)C[C@H]2C[C@@H]1C2(C)C [Compound 219]
33 | ♯ | < 800 | CC(O)C1C(CO)ON(Cc2cccc(C(=O)NC(CC3CCCCC3)CN(C)C)c2)C1C(=O)NC1CC2CC(C1C)C2(C)C (stereo not drawn) [Compound 499]
34 | ♯ | < 800 | COc1cccc(O)c1CN(Cc1cccc(CN2OC(CO)C(C(C)O)C2C(=O)NC2CC3CC(C2C)C3(C)C)c1)C(CC(C)C)CN(C)C (stereo not drawn) [Compound 336]
35 | ♯ | > 50000 | CCCCC[C@H](O)C#Cc1cccc(CN2O[C@@H](CO)[C@@H]([C@H](C)O)[C@H]2C(=O)NCCC(C)C)c1 [Compound 41]
36 | ♯ | < 800 | C[C@@H]1[C@@H](NC(=O)[C@@H]2[C@H]([C@H](C)O)[C@H](CO)ON2Cc2cccc(N3CCN(C(=S)NCCc4ccccc4)CC3)c2)C[C@H]2C[C@@H]1C2(C)C [Compound 266]
37 | ♯ | < 800 | CC(O)C1C(CO)ON(Cc2cccc(CN3CCC(c4ccccc4)C3CN(C)C)c2)C1C(=O)NC1CC2CC(C1C)C2(C)C (stereo not drawn) [Compound 450]
38 | ♯ | < 800 | C[C@@H]1[C@@H](NC(=O)[C@@H]2[C@H]([C@H](C)O)[C@H](CO)ON2Cc2cccc(NCCCN(C)C)c2)C[C@H]2C[C@@H]1C2(C)C [Compound 582]
39 | ♯ | 800 to 6000 | CC(C)CCNC(=O)[C@@H]1[C@H]([C@H](C)O)[C@H](CO)ON1Cc1cccc(CN(Cc2ccccc2)[C@@H](CC(C)C)CN(C)C)c1 [Compound 533]
